From US6350812B1, “Hydrogels containing triblock copolymers, and preparation and use thereof” (Centre National de la Recherche Scientifique (CNRS), priority 1995, dated 2002)

Key:
[1] = Incorporation and retention of a hydrophobic substance in the hydrogel on addition of water and washing with water; type: physicochemical; details: acetone solution, water added
Protocol: 1 g of copolymer of Example 1.3 and 5 mg of commercial colorant Yellow OB are dissolved in 2 cm^3 of acetone.
This is a very hydrophobic, water-insoluble colorant. Distilled water (4 cm^3) is gradually added. A gel is obtained which occupies virtually all the volume of the starting acetone solution.
Hydrogels in which progesterone is incorporated were prepared in an analogous way. […] When administered by subcutaneous injection, the gel constitutes a bioresorbable soft implant which gradually releases the progesterone.

[2] = as described for the commercial colorant; cited from earlier work

For Cc1ccccc1N=Nc1c(N)ccc2ccccc12 [Yellow OB], the “crystallisation / precipitation of the hydrophobic substance on addition of water or washing” value [1] is listed as “the colorant crystallizes during the addition of water” and the “solubility of the colorant in water” value [2] is listed as “water-insoluble”.
